“Also recorded” adds a separate entry of the source.
Tests used:
Huh-7 HCC cells = experiment: Long-term colony formation assay in Huh-7 cells; format: cell-based, human
Description: (§1) Cells were seeded into 6-well plates (2-5×10^4 cells/well) and cultured both in the absence and presence of drugs as indicated. More details are described in Huang et al., 2009 (Huang et al., 2009). All knockdown and overexpression experiments were done by retroviral or lentiviral infection. All relevant assays were performed independently at least three times.

ERK signaling = ERK signaling in MED12-suppressed cancer cells in presence of drugs; format: cell-based, human
Description: The cells were fixed, stained and photographed after 10 (untreated) or 28 days (treated). […] The cells were fixed, stained and photographed after 14 (untreated) or 28 days (treated). […] G) Colony formation assay of Huh-7 cells expressing pLKO control or shMED12 vectors (#4 and #5) were cultured in 2 μM sorafenib. The cells were fixed, stained and photographed after 14 (untreated) or 21 days (treated). […] Huh-7 cells expressing pLKO control or shMED12 vectors were grown in the absence or presence of 4 μM sorafenib for 6 hours and the cell lysates were harvested for western blotting analysis.

[1] = tested on: human NSCLC cell lines that harbor EML4-ALK translocations; details: Galkin 2007; Koivunen 2008; Soda 2007; cited from earlier work
[2] = tested on: H3122 cells (EML4-ALK NSCLC); experiment: Long-term colony formation / cell proliferation assay in H3122 cells; format: cell-based, human; details: for effect of recombinant TGFβ on crizotinib response of H3122 cells: TGFβ in combination with crizotinib, TGFβ-dosage dependent
Description: (§2) Single cell suspensions of the lung cancer cell lines were seeded into 6-well plates (2×10^4 cells/well) and cultured both in the absence and presence of the ALK inhibitors. At the endpoints of colony formation assays, cells were fixed with formaldehyde, stained with crystal violet (0.1% w/v) and photographed. All relevant assays were performed independently at least three times. All knockdown and overexpression experiments were done by retroviral or lentiviral infections.
(§3) Cells were seeded into 6-well plates (2-5×10^4 cells/well) and cultured both in the absence and presence of drugs as indicated. […] All knockdown and overexpression experiments were done by retroviral or lentiviral infection. All relevant assays were performed independently at least three times.

phospho-ERK [3] = experiment: Western blotting of phospho-ERK in H3122 cells; format: cell-based, human; details: 20 nM NVP-TAE684, 24 hours
Description: (A) MED12^KD cells retain phospho-ERK levels in the presence of ALK inhibitor in EML4-ALK cells. H3122 cells expressing controls (pRS or shGFP) or shMED12 vectors were gown in the absence or presence of 20 nM NVP-TAE684 for 24 hours and the cell lysates were harvested for western blotting analysis. (B) SMARCE1^KD cells have elevated phospho-ERK in EML4-ALK cells. H3122 cells expressing controls (pRS or shGFP) or shSMARCE1 vectors were gown in the absence or presence of 20 nM NVP-TAE684 for 24 hours and the cell lysates were harvested for western blotting analysis. (C) MED12^KD cells have elevated phospho-ERK levels in EGFR mutant cells.
Given that loss of MED12 or SMARCE1 causes resistance to multiple tyrosine kinase inhibitors in NSCLC cell lines, Applicants asked whether the activity of downstream components of receptor tyrosine kinase signaling is altered. ERK is a key downstream component and its phosphorylation status positively correlates with its activation that can be determined by specific antibodies against the phosphorylated form of ERK. H3122 cells were infected with two independent controls shRNA vectors or shRNAs targeting either MED12 or SMARCE1 and confirmed loss of MED12 or SMARCE1 protein by immunoblotting (FIGS. 16A and B). […]

[4] = tested on: H1993 cells (MET-amplified NSCLC); experiment: Long-term colony formation assay in H1993 cells; format: cell-based, human
Description: as §2, §3

[5] = tested on: EBC-1 cells (MET-amplified NSCLC); experiment: Long-term colony formation assay in EBC-1 cells; format: cell-based, human
Description: as §2, §3

[6] = tested on: A375 melanoma cells (BRAFV600E); experiment: Long-term colony formation assay in A375 cells; format: cell-based, human; details: for drug response of MED12 knockdown A375 cells: suppression of MED12; for effect of recombinant TGFβ on response of A375 cells to PLX4032 and AZD6244: TGFβ plus PLX4032 or AZD6244, TGFβ-dosage dependent
Description: as §3

[7] = tested on: SK-CO-1 colorectal cancer cells (KRASV12); experiment: Long-term colony formation assay in SK-CO-1 cells; format: cell-based, human; details: for effect of recombinant TGFβ on response of SK-CO-1 cells to AZD6244: TGFβ plus AZD6244, TGFβ-dosage dependent
Description: as §1

[8] = tested on: H3255 cells (EGFR L858R NSCLC); experiment: Long-term colony formation / cell proliferation assay in H3255 cells; format: cell-based, human
Description: as §2, §3

[9] = tested on: PC9 cells (EGFR delE746-A750 NSCLC); experiment: Long-term colony formation / cell proliferation assay in PC9 cells; format: cell-based, human
Description: as §2, §3

phospho-ERK [10] = experiment: Western blotting of phospho-ERK in PC9 cells; format: cell-based, human; details: 25 nM gefitinib, 8 hours
Description: (A) Validation of independent shRNAs (in pLKO vector) targeting DABP2IP in PC9 cells. […] The cells were fixed, stained and photographed after 2 weeks (untreated) or 4 weeks (EGFR inhibitors treatment). (B) The knockdown ability of each of the shRNAs was measured by examining the DAB2IP mRNA levels by qRT-PCR. Error bars denote standard deviation (SD).
To validate the results of Applicants' focused shRNA mini-screen, Applicants individually introduced the five DAB2IP shRNAs from the TRC shRNA collection into PC9 cells (FIG. 14A). […] Next, Applicants addressed whether loss of DAB2IP affects the activity of downstream signaling components of the RAS pathway, in particular the phosphorylation (activation) status of ERK. […] Next, Applicants individually introduced the five NF1 shRNAs from the TRC shRNA collection into PC9 cells (FIG. 15A).

[11] = tested on: PC9 cells (EGFR delE746-A750 NSCLC); details: parental cells, low nanomolar concentrations; cited from earlier work
[12] = tested on: H3255 cells (EGFR L858R NSCLC); details: parental cells, low nanomolar concentrations; cited from earlier work

CNC(=O)c1cc(Oc2ccc(NC(=O)Nc3ccc(Cl)c(C(F)(F)F)c3)cc2)ccn1 [sorafenib]
sensitivity of Huh-7 cells (Huh-7 HCC cells; parental cells): sensitive
drug response of MED12 knockdown Huh-7 cells (Huh-7 HCC cells; shMED12, 2 μM sorafenib): became resistant
activation of ERK signaling by MED12 suppression in the presence of drug (ERK signaling): persists

COc1cc(N2CCC(N3CCN(C)CC3)CC2)ccc1Nc1ncc(Cl)c(Nc2ccccc2S(=O)(=O)C(C)C)n1 [NVP-TAE684]
inhibition of EML4-ALK NSCLC cell lines [1]: potently inhibit
drug response of ARID1A knockdown H3122 cells ([2]; shARID1A, 300 nM crizotinib or 2.5 nM NVP-TAE684): confer resistance
drug response of MED12 knockdown H3122 cells ([2]; shMED12 vectors, 300 nM crizotinib or 2.5 nM NVP-TAE684): confer resistance; also recorded: conferred resistance
drug response of SMARCE1 knockdown H3122 cells ([2]; shSMARCE1, 300 nM crizotinib or 2.5 nM NVP-TAE684): confer resistance
ERK phosphorylation in MED12 knockdown H3122 cells in presence of inhibitor (phospho-ERK [3]; shMED12): maintained higher levels of ERK phosphorylation
phosphorylated ERK in SMARCE1 knockdown H3122 cells in presence of inhibitor (phospho-ERK [3]; shSMARCE1): maintained higher levels of phosphorylated ERK

C[C@@H](Oc1cc(-c2cnn(C3CCNCC3)c2)cnc1N)c1c(Cl)ccc(F)c1Cl [crizotinib]
drug response of ARID1A knockdown H1993 cells ([4]; shARID1A #1 and #2): conferred resistance
drug response of SMARCE1 knockdown H1993 cells ([4]; shSMARCE1#1 and #2): conferred resistance
drug response of SMARCE1 knockdown H1993 cells reconstituted with SMARCE1-ND ([4]; shSMARCE1 plus SMARCE1-ND): restored the sensitivity
drug response of SMARCE1 knockdown EBC-1 cells ([5]; shSMARCE1#1 and #2): conferred resistance
drug response of SMARCE1 knockdown EBC-1 cells reconstituted with SMARCE1-ND ([5]; shSMARCE1 plus SMARCE1-ND): restored the sensitivity

CCCS(=O)(=O)Nc1ccc(F)c(C(=O)c2c[nH]c3ncc(Cl)cc23)c1F [PLX4720]
drug response of MED12 knockdown A375 cells [6]: conferred resistance

TGFβ
proliferation of Huh-7 cells, recombinant TGFβ alone (Huh-7 HCC cells; TGFβ treatment alone): growth inhibition
effect of recombinant TGFβ on response of SK-CO-1 cells to AZD6244 [7]: dosage dependent resistance
effect of recombinant TGFβ on response of SK-CO-1 cells to AZD6244 ([7]; listed as Recombinant TGFβ): leads to resistance
effect of recombinant TGFβ on response of A375 cells to PLX4032 and AZD6244 [6]: dosage dependent resistance
effect of recombinant TGFβ on response of A375 cells to PLX4032 and AZD6244 ([6]; listed as Recombinant TGFβ): leads to resistance
proliferation of A375 cells, recombinant TGFβ alone ([6]; TGFβ treatment alone): growth inhibition
effect of recombinant TGFβ on crizotinib response of H3122 cells [2]: continued to proliferate
effect of recombinant TGFβ on crizotinib response of H3122 cells ([2]; listed as Recombinant TGFβ): leads to resistance
effect of recombinant TGFβ on response of H3255 cells to EGFR inhibitors ([8]; TGFβ plus EGFR inhibitors): conferred resistance
effect of recombinant TGFβ on response of PC9 cells to EGFR inhibitors ([9]; TGFβ plus EGFR inhibitors): conferred resistance

Cn1cnc2c(F)c(Nc3ccc(Br)cc3Cl)c(C(=O)NOCCO)cc21 [AZD6244, seluteminib]
sensitivity of SK-CO-1 cells ([7]; parental cells): highly sensitive
drug response of MED12 knockdown SK-CO-1 cells ([7]; shMED12, 0.5 μM AZD6244): conferred resistance
activation of ERK signaling by MED12 suppression in the presence of drug (ERK signaling): persists

COc1cc2ncnc(Nc3ccc(F)c(Cl)c3)c2cc1OCCCN1CCOCC1 [gefitinib]
phosphorylation of ERK in shDAB2IP PC9 cells treated with drug (phospho-ERK [10]): maintained
activation of ERK signaling by MED12 suppression in the presence of drug (ERK signaling): persists

Cc1cccc(-c2nn3c(c2-c2ccnc4ccc(C(N)=O)cc24)CCC3)n1 [LY2157299]
proliferation under monotherapy, control and MED12KD H3122 cells ([2]; 1 μM LY2157299 alone, all cells): little effect

O=C(NOC[C@H](O)CO)c1ccc(F)c(F)c1Nc1ccc(I)cc1F [PD-0325901]
drug response of MED12 knockdown A375 cells [6]: conferred resistance

C#Cc1cccc(Nc2ncnc3cc(OCCOC)c(OCCOC)cc23)c1 [erlotinib]
sensitivity of PC9 cells [11]: exquisitely sensitive
sensitivity of H3255 cells [12]: exquisitely sensitive
drug response of control H3255 cells ([8]; pRS and shGFP control cells): effectively eradicated
drug response of MED12 knockdown H3255 cells ([8]; shMED12): insensitive
drug response of DAB2IP knockdown PC9 cells ([9]; shDAB2IP#1 and #3, 50 nM): conferred resistance
drug response of NF1 knockdown PC9 cells ([9]; shNF1#2 and #5, 50 nM): conferred resistance

From patent US20140296248A1, “METHODS AND COMPOSITIONS FOR PREDICTING RESISTANCE TO ANTICANCER TREATMENT” (Stichting het Nederlands Kanker Instiuut-Antoni van …, priority 2011, published 2014)
